Results on 2 compounds are retold here after PMC9653733, “Characterization of a Potent, Selective, and Safe Inhibitor, Ac15(Az8)2, in Reversing Multidrug Resistance Mediated by Breast Cancer Resistance Protein (BCRP/ABCG2)” (International Journal of Molecular Sciences, 2022).

Where “and” joins values, the source holds several entries; their conditions need not be identical. Identical values can stand only once.

Data set [1] has as its system S1 cells. As to the kind of experiment: Cytotoxicity of anticancer drugs in parental S1 (0.1% DMSO). Format: cell-based, human.
Data set [2] concerns S1M180 cells. Kind of data set: Cytotoxicity of anticancer drugs in S1M180 (0.1% DMSO). Format: cell-based, human. As to the method:
In total, 6500 cells of S1M180 or MCF7-MX100 were incubated with various doses of topotecan or DOX and modulators. The final volume in each well of 96-well plates was 200 µL. The plates were then incubated for 5 days at 37 °C. The CellTiter 96 AQueous Assay (Promega) was used to measure cell proliferation. According to the manufacturer’s instructions, MTS (2 mg/mL) and PMS (0.92 mg/mL) were mixed in a ratio of 20:1. An aliquot (10 μL) of the freshly prepared MTS/PMS mixture was added into each well, and the plate was incubated for 2 h at 37 °C. Optical absorbance at 490 nm was then recorded with microplate absorbance reader (Bio-Rad). IC50 values were calculated from the dose-response curves of MTS assays (Prism 4.0).

Data set [3] concerns the target T1, BCRP (S1M180 cells) (Homo sapiens, UniProt Q9UNQ0, R482G).
T1 construct: endogenous in cells; host or cells: S1M180 (human colon carcinoma, mitoxantrone-selected)
T1 sequence (Q9UNQ0 1-655 R482G): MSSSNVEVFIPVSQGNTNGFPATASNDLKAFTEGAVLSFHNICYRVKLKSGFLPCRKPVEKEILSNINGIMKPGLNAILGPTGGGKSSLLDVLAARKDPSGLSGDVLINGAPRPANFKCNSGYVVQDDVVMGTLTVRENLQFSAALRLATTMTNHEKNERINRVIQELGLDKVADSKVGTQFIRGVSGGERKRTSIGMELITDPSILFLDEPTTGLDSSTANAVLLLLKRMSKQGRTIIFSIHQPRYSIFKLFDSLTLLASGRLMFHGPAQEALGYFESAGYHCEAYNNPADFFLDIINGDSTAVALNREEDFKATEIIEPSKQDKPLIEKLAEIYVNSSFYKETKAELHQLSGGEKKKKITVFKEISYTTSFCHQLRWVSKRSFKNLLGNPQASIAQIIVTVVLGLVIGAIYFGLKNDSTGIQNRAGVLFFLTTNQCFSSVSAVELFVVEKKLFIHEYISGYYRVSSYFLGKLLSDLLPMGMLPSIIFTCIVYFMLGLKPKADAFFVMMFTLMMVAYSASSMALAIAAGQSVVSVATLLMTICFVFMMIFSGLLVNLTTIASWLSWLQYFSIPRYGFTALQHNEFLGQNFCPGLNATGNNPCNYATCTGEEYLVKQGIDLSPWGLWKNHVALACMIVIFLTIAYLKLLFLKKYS
As to the kind of experiment: Drug accumulation assay in S1M180. The data set is classed as cell-based. The following applies: 20 µM DOX, 1 h; p < 0.001. As to the method: Figure 2 Effect of Ac15(Az8)2 on intracellular accumulation of BCRP-substrates in S1 and S1M180 cells. Cells were pre-treated with 0.1% DMSO, 100 nM, or 1000 nM Ac15(Az8)2 and then incubated with BCRP substrates. (A) Topotecan accumulation. (B) DOX accumulation. The intracellular level of drug after treatment was normalized to that of S1 cells after incubating with 0.1% DMSO. Student unpaired two-tailed t-test was conducted as indicated (** p < 0.01, *** p < 0.001). (C) To measure DOX efflux, S1M180 cells were pre-incubated with medium containing 20 μM DOX for 1 h at 37 °C. Cells were then washed and further incubated with or without 1 µM of Ac15(Az8)2. At 0, 5, 10, 30, 60, 120, and 180 min, the cells were harvested to measure the intracellular DOX level. (D) To determine intracellular Ac15(Az8)2 concentration, 1 × 10^7 cells were incubated with 1 µM of Ac15(Az8)2 at 37 °C for 2 h. Cells were then washed with ice-cold PBS. To the cell pellet, acetonitrile was added to lyse the cells, and the supernatant was saved for Ac15(Az8)2 determination using UPLC–MS/MS.
Briefly, 1 × 10^6 cells of S1 and S1M180 cells were pre-incubated with 100 nM or 1000 nM Ac15(Az8)2 for 2 h and followed by 50 µM of topotecan or 20 µM of DOX for 1-h incubation. DMSO at 0.1% was used as a negative control. After incubation, the cells were spun down and washed with cold PBS, pH7.4 for 2 times and lysed with 100 μL of lysis buffer (0.75 M HCl, 0.2% Triton-X100 in isopropanol) with vigorous vortex. The lysate was further incubated at 37 °C for 20 min. After incubation, the lysate was spun down, and 100 μL of supernatant was saved and seeded into a black 96-well microtiter plate. The fluorescence level of DOX was determined by a fluorescence microplate reader (BMG Technologies) using excitation and an emission wavelength pair of 460 nm and 610 nm.

Data set [4] relates to BCRP (MCF7-MX100 cells). The following applies: concentration reducing IC50 of anticancer drug by half; mean ± S.D.; ref [42]; read-out: EC50 needed for reversing BCRP-mediated topotecan resistance, MCF7-MX100; cited from earlier work.
The subject of data set [5] is MRP1 (2008/MRP1 cells). Particulars: mean ± S.D.; ref [42]; read-out: EC50 needed for reversing MRP1-mediated DOX resistance, 2008/MRP1; cited from earlier work.
Data set [6] relates to L929. Particulars: normal mouse fibroblast cells; mean ± S.D.; ref [42]; read-out: IC50 towards L929; cited from earlier work.

Regarding `COc1cccc2c1C(=O)c1c(O)c3c(c(O)c1C2=O)C[C@@](O)(C(=O)CO)C[C@@H]3O[C@H]1C[C@H](N)[C@H](O)[C@H](C)O1` [DOX, doxorubicin], the half-inhibitory concentration (IC50) in data set [1] (Homo sapiens, S1 + 0.1% DMSO, mean ± S.D., n = 3, read-out: IC50 of DOX) came out at 0.1 ± 0.02 µM; in data set [2] (Homo sapiens, S1-M1-80, S1M180 + 0.1% DMSO, mean ± S.D., n = 3, read-out: IC50 of DOX), 13.4 µM. Besides, the “RF (Relative Fold), DOX: resistance of S1M180 compared to parental S1” value in data set [1] (S1 + 0.1% DMSO vs S1M180 + 0.1% DMSO) is recorded as 133.7. For the same compound, the “RF (Relative Fold), DOX” value in data set [2] (S1M180 + 0.1% DMSO (reference)) came to 1.0. Also, the “DOX accumulation in S1M180, fold less than parental S1” value in data set [3] is given as approximately 4.6 fold.

For the compound `COc1ccc2c3c([nH]c2c1)[C@H](CC(C)C)N1C(=O)[C@H](CCC(=O)OC(C)(C)C)NC(=O)[C@@H]1C3` [Ko143, reference compound], the EC50 is […] in data set [4] and 1.95 ± 0.354 µM in data set [5]. In data set [6], the IC50 was 29 µM and 29.2 µM.
